Test results taken from ChEMBL document CHEMBL1201862, “PubChem BioAssay data set” (2004).
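Dose response: 5 concentrations. Exposure: 48 h. Format: 96-well plates. Endpoint: linear interpolation; highest concentration if not reached. Abbreviation: GI50, concentration required for 50% inhibition of growth.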 Calls of active or inactive are those of the source. Cut-off read from the data, not from the text of the source: active = GI50 up to about 1.1 µM and inactive = higher.

What was measured:
Test in all cases: NCI tumour cell line growth inhibition, 48 h
[1] = test system: MOLT-4
[2] = test system: NCI/ADR-RES
[3] = test system: CAKI-1
[4] = test system: SNB-75
[5] = test system: HT-29
[6] = test system: UACC-257
[7] = test system: OVCAR-3
[8] = test system: MDA-N
[9] = test system: MCF7
[10] = test system: A549
[11] = test system: U-251
[12] = test system: 786-0
[13] = test system: HCT-15
[14] = test system: UACC-62
[15] = test system: A498
[16] = test system: OVCAR-8
[17] = test system: TK-10
[18] = test system: SW-620
[19] = test system: Malme-3M
[20] = test system: HCC 2998

SMILES	GI50 [1]	GI50 [2]	GI50 [3]	GI50 [4]	GI50 [5]	GI50 [6]	GI50 [7]	GI50 [8]	GI50 [9]	GI50 [10]	GI50 [11]	GI50 [12]	GI50 [13] [µM]	GI50 [14]	GI50 [15]	GI50 [16]	GI50 [17]	GI50 [18]	GI50 [19]	GI50 [20]
CCOP(=O)(CN1CCNCCN(CP(=O)(OCC)OCC)CC1)OCC	> 100 µM (inactive)	> 100 µM (inactive)	> 100 µM (inactive)	> 100 µM (inactive)	> 100 µM (inactive)	> 100 µM (inactive)	> 100 µM (inactive)	> 100 µM (inactive)	> 100 µM (inactive)	> 100 µM (inactive)	> 100 µM (inactive)	> 100 µM (inactive)	> 100	> 100 µM (inactive)	> 100 µM (inactive)	> 100 µM (inactive)	> 100 µM (inactive)	> 100 µM (inactive)		
N=C(N)Nc1nc2cc([N+](=O)[O-])ccc2[nH]1	> 100 µM (inactive)	58.5 µM (inactive)	> 100 µM (inactive)	22.1 µM (inactive)	> 100 µM (inactive)	80.2 µM (inactive)	99.3 µM (inactive)	> 100 µM (inactive)	48.5 µM (inactive)	> 100 µM (inactive)	91.4 µM (inactive)	> 100 µM (inactive)	> 100	55.1 µM (inactive)	27 µM (inactive)	> 100 µM (inactive)	81.8 µM (inactive)	> 100 µM (inactive)	> 100 µM (inactive)	
CN(C)CCNC1=CC(=O)c2nc3ccccc3c3ccnc1c23	2.48 µM (inactive)	4.13 µM (inactive)	4.02 µM (inactive)	13.1 µM (inactive)	2.58 µM (inactive)	9.62 µM (inactive)	2.78 µM (inactive)	7.78 µM (inactive)	3.75 µM (inactive)	4.52 µM (inactive)	8.26 µM (inactive)	2.81 µM (inactive)	3.23	5.31 µM (inactive)		4.36 µM (inactive)	8.2 µM (inactive)	4.42 µM (inactive)	3 µM (inactive)	4.47 µM (inactive)
Cc1ccc(C2=NN=C3C(c4ccccc4)=Nc4ccccc4N3C2)cc1	1.34 µM (inactive)	3.93 µM (inactive)	19.7 µM (inactive)		11.6 µM (inactive)	4.03 µM (inactive)	2.61 µM (inactive)	32.9 µM (inactive)	8.38 µM (inactive)	27.7 µM (inactive)	6.49 µM (inactive)	6.56 µM (inactive)	4.73	15.7 µM (inactive)	> 53.1 µM (inactive)	6.07 µM (inactive)	0.348 µM (active)	5.51 µM (inactive)	5.38 µM (inactive)	19.6 µM (inactive)
COc1nc(SC)nc2c1C(O)n1c(nc3ccccc31)S2 (stereo unspecified)	4.15 µM (inactive)	10.5 µM (inactive)	41.3 µM (inactive)		35.9 µM (inactive)	59.6 µM (inactive)	32.7 µM (inactive)	40.4 µM (inactive)	1.84 µM (inactive)	28.6 µM (inactive)	10.6 µM (inactive)	6.65 µM (inactive)	33.5	0.551 µM (active)	16.3 µM (inactive)	14.1 µM (inactive)	23.7 µM (inactive)	9.14 µM (inactive)	40 µM (inactive)	6.79 µM (inactive)
CC(=O)C(=NNc1ccc(-n2c(C)nc3ccc(Br)cc3c2=O)cc1)C(C)=O	> 100 µM (inactive)	54.1 µM (inactive)	> 100 µM (inactive)	20.7 µM (inactive)	> 100 µM (inactive)	> 100 µM (inactive)	> 100 µM (inactive)	> 100 µM (inactive)	> 100 µM (inactive)	> 100 µM (inactive)	58.2 µM (inactive)	33.7 µM (inactive)	> 100	82.4 µM (inactive)	> 100 µM (inactive)	53.7 µM (inactive)	56.9 µM (inactive)	> 100 µM (inactive)		
[N-]=[N+]=NC[C@H]1OCO[C@H](CN=[N+]=[N-])[C@@H](OCCOCCCl)[C@@H]1OCCOCCCl	> 100 µM (inactive)	> 100 µM (inactive)	> 100 µM (inactive)	> 100 µM (inactive)	> 100 µM (inactive)	> 100 µM (inactive)	> 100 µM (inactive)	> 100 µM (inactive)	> 100 µM (inactive)	> 100 µM (inactive)	> 100 µM (inactive)	> 100 µM (inactive)	> 100	80 µM (inactive)		> 100 µM (inactive)	> 100 µM (inactive)	> 100 µM (inactive)	> 100 µM (inactive)	> 100 µM (inactive)
Cc1cc2[nH]c3[nH]c(=O)[nH]c(=O)c3c2cc1C		> 100 µM (inactive)	> 100 µM (inactive)	> 100 µM (inactive)	> 100 µM (inactive)	> 100 µM (inactive)		> 100 µM (inactive)	> 100 µM (inactive)	> 100 µM (inactive)		> 100 µM (inactive)	> 100	97.1 µM (inactive)	> 100 µM (inactive)	> 100 µM (inactive)	> 100 µM (inactive)	> 100 µM (inactive)	> 100 µM (inactive)	> 100 µM (inactive)
CC1(C)OCC2(CO1)CSCCCSCC1(COC(C)(C)OC1)CSCCCSC2	> 100 µM (inactive)	> 100 µM (inactive)		90.6 µM (inactive)	> 100 µM (inactive)	> 100 µM (inactive)	> 100 µM (inactive)	> 100 µM (inactive)	> 10 µM (inactive)	> 100 µM (inactive)	> 100 µM (inactive)	> 100 µM (inactive)	> 100	> 100 µM (inactive)		> 100 µM (inactive)	> 100 µM (inactive)	> 100 µM (inactive)		> 100 µM (inactive)
Cc1ncc(CSC(=N)N)n1Cc1ccccc1		> 100 µM (inactive)	84.1 µM (inactive)		55.8 µM (inactive)	29.7 µM (inactive)	51.6 µM (inactive)	38.2 µM (inactive)	39.5 µM (inactive)	> 100 µM (inactive)	> 100 µM (inactive)	46 µM (inactive)	> 100	> 100 µM (inactive)	> 100 µM (inactive)	> 100 µM (inactive)	25.8 µM (inactive)	45.5 µM (inactive)	54.5 µM (inactive)	
O=[N+]([O-])c1ccc2c3c1[C@@H]1O[C@@H]1c1cccc(c1-3)[C@@H]1O[C@H]21	4.69 µM (inactive)	4.91 µM (inactive)	1.61 µM (inactive)	5.68 µM (inactive)	3.48 µM (inactive)	6.87 µM (inactive)	3.05 µM (inactive)	3.04 µM (inactive)	3.55 µM (inactive)	6.76 µM (inactive)	4.08 µM (inactive)	2.47 µM (inactive)	2.57	7.14 µM (inactive)	3.23 µM (inactive)	2.04 µM (inactive)	7.78 µM (inactive)	2.72 µM (inactive)	3.49 µM (inactive)	
